Test results as given in patent publication US20240408117A1, “COMPOSITIONS AND METHODS FOR TREATING HEMIPLEGIC MIGRAINE” (Schedule 1 Therapeutics, Inc., priority 2023, published 2024).
Values after ≈ are worked out from the molar mass of the structure shown.

What was measured:
[1] = Solubility of cannabidiol in solvents, oils and buffers at 25° C.; type: physicochemical
[2] = Accelerated and long-term stability studies of cannabidiol (ICH Q1A (R2)); type: physicochemical; conditions: batches stored per ICH Q1A (R2)
Experimental: Manufacturing of all lots of cannabidiol was conducted in a manner consistent with Good Manufacturing Practices and ICH Q7 regulations. Consistent with these principles, and in direct regard to production of cannabidiol, the manufacturer conducted accelerated stability studies utilizing batches of cannabidiol manufactured at full scale. […]. In addition, the manufacturer has batches of cannabidiol on a long-term stability study. […] For these batches, the data and results from these stability studies are in compliance with documentation procedures.

OEL of cannabidiol = conditions: estimated
[3] = Solubility of dronabinol at 25° C.; type: physicochemical; conditions: for solubility: organic solvent or mixture
Experimental: Solubility at 25° C.: Dronabinol is immiscible in water.

[4] = Hygroscopicity of dronabinol by thermogravimetric analysis; type: physicochemical

C=C(C)[C@@H]1CCC(C)=C[C@H]1c1c(O)cc(CCCCC)cc1O [Cannabidiol, 2-[(1R,6R)-3-methyl-6-prop-1-en-2-ylcyclohex-2-en-1-yl]-5-pentylbenzene-1,3-diol]
solubility ([1]; Britton Robinson Buffer, aqueous buffer, BRB pH 6, 25° C.): 0.00013 mg/mL (≈ 0.000413 mM) | solubility ([1]; Britton Robinson Buffer, aqueous buffer, BRB pH 8, 25° C.): 0.00012 mg/mL (≈ 0.000382 mM) | solubility ([1]; Britton Robinson Buffer, pH 4, aqueous buffer, BRB pH4, 25° C.): 0.00011 mg/mL (≈ 0.00035 mM) | solubility ([1]; Britton Robinson buffer, aqueous buffer, BRB pH 10, 25° C.): 0.00013 mg/mL (≈ 0.000413 mM) | solubility ([1]; Britton Robinson buffer, aqueous buffer, BRB pH 11, 25° C.): 0.00041 mg/mL (≈ 0.0013 mM) | Solubility ([1]; Heptane, 25° C.): 64.6 mg/mL (≈ 205 mM) | Solubility ([1]; Isooctane, 25° C.): 43.9 mg/mL (≈ 140 mM) | Solubility ([1]; Water, 25° C.): <0.1 mg/mL | solubility ([1]; Water, 25° C.): < 0.1 mg/mL | solubility ([1]; aqueous buffer, BRB (Britton Robinson Buffer) pH 2, 25° C.): 0.00011 mg/mL (≈ 0.00035 mM) | solubility ([1]; aqueous buffer, Britton Robinson Buffers): < 0.1 mg/mL | solubility ([1]; aqueous buffer, Phosphate Buffer pH 6.5 without SLS, 25° C.): 0.00015 mg/mL (≈ 0.000477 mM) | solubility ([1]; aqueous with cosolvent or surfactant or cyclodextrin, Cremophor EL, 25° C.): > 100 mg/mL | solubility ([1]; aqueous with cosolvent or surfactant or cyclodextrin, Tween 80, 25° C.): > 100 mg/mL | Solubility ([1]; n-Decane, 25° C.): 36.8 mg/mL (≈ 117 mM) | solubility ([1]; oil or lipid, Dodecane Oil, 25° C.): 28 mg/mL (≈ 89 mM) | solubility ([1]; oil or lipid, Mineral Oil, 25° C.): 16 mg/mL (≈ 50.9 mM) | solubility ([1]; oil or lipid, Sesame Oil, 25° C.): 216 mg/mL (≈ 687 mM) | solubility ([1]; oil or lipid, Sunflower Seed Oil, 25° C.): > 100 mg/mL | solubility ([1]; organic solvent or mixture, 1,2-Dimethyloxyethane, 25° C.): > 100 mg/mL | solubility ([1]; organic solvent or mixture, 1,4-dioxane, 25° C.): > 100 mg/mL | solubility ([1]; organic solvent or mixture, 1-Propanol, 25° C.): > 100 mg/mL | solubility ([1]; organic solvent or mixture, 2-Propanol (IPA), 25° C.): > 100 mg/mL | solubility ([1]; organic solvent or mixture, 2-butanone, 25° C.): > 100 mg/mL | solubility ([1]; organic solvent or mixture, 2-methyl tetrahydrofuran (2-MeTHF), 25° C.): > 100 mg/mL | solubility ([1]; organic solvent or mixture, 2-methyl tetrahydrofuran saturated with water, 25° C.): > 100 mg/mL | solubility ([1]; organic solvent or mixture, Acetone, 25° C.): > 100 mg/mL | solubility ([1]; organic solvent or mixture, Acetonitrile (ACN), 25° C.): > 100 mg/mL | solubility ([1]; organic solvent or mixture, Anisole, 25° C.): > 100 mg/mL | solubility ([1]; organic solvent or mixture, Chloroform, 25° C.): > 100 mg/mL | solubility ([1]; organic solvent or mixture, Cumene, 25° C.): > 100 mg/mL | solubility ([1]; organic solvent or mixture, Cyclohexane, 25° C.): > 100 mg/mL | solubility ([1]; organic solvent or mixture, DMSO, 25° C.): > 100 mg/mL | solubility ([1]; organic solvent or mixture, Dichloromethane, 25° C.): > 100 mg/mL | solubility ([1]; organic solvent or mixture, Diethyl Ether, 25° C.): > 100 mg/mL | solubility ([1]; organic solvent or mixture, Ethanol (EtOH), 25° C.): > 100 mg/mL | solubility ([1]; organic solvent or mixture, Ethyl Acetate (EtOAc), 25° C.): > 100 mg/mL | solubility ([1]; organic solvent or mixture, Ethyl Formate, 25° C.): > 100 mg/mL | solubility ([1]; organic solvent or mixture, Isobutanol, 25° C.): > 100 mg/mL | solubility ([1]; organic solvent or mixture, Isopropyl Acetate (IPAc), 25° C.): > 100 mg/mL | solubility ([1]; organic solvent or mixture, Methanol (MeOH), 25° C.): > 100 mg/mL | solubility ([1]; organic solvent or mixture, N-methyl-pyrrolidone, 25° C.): > 100 mg/mL | solubility ([1]; organic solvent or mixture, Tetrahydrofuran, 25° C.): > 100 mg/mL | solubility ([1]; organic solvent or mixture, Toluene, 25° C.): > 100 mg/mL | solubility ([1]; organic solvent or mixture, all other solvents examined with the exception of heptane, n-decane and isooctane): > 100 mg/mL | solubility ([1]; organic solvent or mixture, methylcyclohexane, 25° C.): > 100 mg/mL | solubility ([1]; organic solvent or mixture, n-hexane, 25° C.): > 100 mg/mL | solubility ([1]; organic solvent or mixture, p-Xylene, 25° C.): > 100 mg/mL | solubility ([1]; organic solvent or mixture, tert-Butyl methyl ether (MTBE), 25° C.): > 100 mg/mL | solubility ([1]; phosphate buffer with 0.4% SLS, aqueous with cosolvent or surfactant or cyclodextrin, Phosphate Buffer pH 6.5 with 0.4% SLS, 25° C.): 0.00012 mg/mL (≈ 0.000382 mM) | Stability (impurity levels, assay) [2]: no trends towards increased impurity levels or decrease in assay | OEL (OEL of cannabidiol): 5-20 μg/m^3

CCCCCc1cc(O)c2c(c1)OC(C)(C)[C@@H]1CCC(C)=C[C@@H]21 [Dronabinol, 2-(6aR,10aR) 6a,7,8,10a-tetrahydro-6,6,9-trimethyl-3-pentyl-6H-dibenzo[b,d]pyran-l-ol]
Solubility ([3]; Water): immiscible | solubility ([3]; Acetone): 100 mg/mL (≈ 318 mM) | solubility ([3]; Ethanol): 100 mg/mL (≈ 318 mM) | Hygroscopicity [4]: non-hygroscopic | weight change ([4]; approximately 140° C.): less than 0.1%
